Columns and labels:
Type in all cases: cell-based
[1] = test system: human kidney proximal tubule epithelial cell (HK-2) cell line; assay: Antioxidant effect, intracellular reactive oxygen species (DCF-DA) in HK-2 kidney cells after H2O2; conditions: 1 µM for 18 hours, then 500 µM H2O2 for 6 hours, FIG. 6
Protocol: First, the antioxidant effect was checked using kidney cells. More specifically, a human kidney proximal tubule epithelial cell (HK-2) cell line was treated with 1 µM DMC derivative and cultured for 18 hours. Then, 500 µM H2O2 was added to the culture medium and the culture medium was incubated for 6 hours. Thereafter, the amount of intracellular reactive oxygen species (iROS) was measured using dichlorohydro-fluorescein diacetate (DCF-DA).

[2] = test system: vascular endothelial cells (HUVECs) and THP-1 (human monocyte) immune cells; assay: Binding of THP-1 immune cells to TNFα-treated vascular endothelial cells (HUVECs); conditions: 10 µM with 10 ng/mL TNFα, 24 hours, then THP-1 for 1 hour; FIG. 5
Protocol: In the early stages of progression of vascular diseases such as arteriosclerosis, adhesion materials are expressed in vascular endothelial cells due to various environmental factors, thereby increasing the binding of immune cells. Therefore, in order to check whether the DMC derivatives of Example 1 affect the binding between vascular endothelial cells and immune cells, vascular endothelial cells (HUVECs) were treated with 10 ng/mL TNFα and 10 µM DMC derivative and cultured for 24 hours. Then, THP-1 (human monocyte) immune cells labeled with a fluorescent protein were added to the culture solution, and the cells were additionally cultured for 1 hour. After the culture was completed, unbound immune cells were removed using a phosphate buffer solution, and then the degree of binding of immune cells to vascular endothelial cells was determined by measuring the intensity of fluorescence.

[3] = test system: rat aortic smooth muscle cells; assay: PDGF-induced migration of vascular smooth muscle cells; conditions: 1 µM with 10 ng/mL PDGF; FIG. 4
Protocol: Proliferation and migration of vascular smooth muscle cells are known to be essential steps in the progression of vascular diseases such as restenosis and arteriosclerosis. Therefore, in order to confirm the effect of the DMC derivatives of Example 1 on the migration of rat aortic smooth muscle cells, smooth muscle cells were treated with 10 ng/mL platelet-derived growth factor (PDGF) and 1 µM DMC derivative and cultured. Then, the degree of cell migration was measured.

AMPK = AMPK activity, western blotting of phosphorylated AMPK in C2C12 myotubes; conditions: 10 µM, 24 hours, FIG. 2
Source text: AMP-activated protein kinase (AMPK) is a member of serine/threonine kinases, and is an enzyme known as an energy sensor which senses the intracellular energy state. Moreover, the activation of AMPK is known to show the effect of increasing glucose transport and promoting fatty acid oxidation in skeletal muscle, and to […] the synthesis of cholesterol and triglycerides, decrease lipogenesis, and increase fatty acid oxidation, and ketogenesis, and the like in the liver. Further, the activation of AMPK is known to reduce adipogenesis in adipose tissue and increase insulin secretion in pancreatic beta cells, thereby being able to be applied to the treatment of various metabolic diseases. Therefore, western blotting was performed in order to confirm the effect of the DMC derivatives of Example 1 on AMPK activity. More specifically, the C2C12 myoblasts were primarily cultured in DMEM supplemented with 10% fetal bovine serum, and then cultured in DMEM supplemented with 2% horse serum for 5 days to differentiate into myotubes. Then, the differentiated myotubes were treated with 10 µM DMC derivative and cultured for 24 hours, and then cells were collected, and disrupted using an ultrasonic disperser to obtain proteins. Next, western blotting was performed using a pAMPK antibody (Cell Signaling Technology) and an AMPK antibody (Cell Signaling Technology) to measure the amount of phosphorylated AMPK. 1 mM AICAR was used as a positive control, and 20 µg of protein was used for each sample in western blotting.

SMILES | amount of intracellular reactive oxygen species (ROS) [1] | binding of immune cells to vascular endothelial cells (fluorescence) [2] | migration of vascular smooth muscle cells [3] | activity of AMPK (phosphorylated AMPK) (AMPK)
COCOc1c(C)c(O)c(C(=O)/C=C/c2cccc(F)c2)c(OC)c1C [Chemical Formula 35, 1-(2′-hydroxy-4′-(methoxymethoxy)-6′-methoxy-3′,5′-dimethylphenyl)-3-(3-fluorophenyl)-2-propen-1-one] | effectively reduced ROS | similarly or more effectively suppressed the binding of immune cells than Rosi |  | 
CCOc1ccc(/C=C/C(=O)c2c(O)c(C)c(O)c(C)c2OC)cc1F [Chemical Formula 33, 1-(2′,4′-dihydroxy-6′-methoxy-3′,5′-dimethylphenyl)-3-(4-ethoxy-3-fluorophenyl)-2-propen-1-one] | effectively reduced ROS | similarly or more effectively suppressed the binding of immune cells than Rosi | similarly or more effectively suppressed cell migration by PDGF than AICAR and Rosi, which were used as positive controls, and DMC | 
COc1c(C)c(O)c(C)c(O)c1C(=O)/C=C/c1ccc(F)cc1 [Chemical Formula 2, 1-(2′,4′-dihydroxy-6′-methoxy-3′,5′-dimethylphenyl)-3-(4-fluorophenyl)-2-propen-l-one] | effectively reduced ROS | similarly or more effectively suppressed the binding of immune cells than Rosi | similarly or more effectively suppressed cell migration by PDGF than AICAR and Rosi, which were used as positive controls, and DMC | 
COc1c(C)c(O)c(C)c(O)c1C(=O)/C=C/c1ccc(Cl)cc1 [Chemical Formula 8, 1-(2′,4′-dihydroxy-6′-methoxy-3′,5′-dimethylphenyl)-3-(4-chlorophenyl)-2-propen-1-one] | effectively reduced ROS | similarly or more effectively suppressed the binding of immune cells than Rosi |  | increased the activity of AMPK similarly to or more effectively than the positive controls
COc1c(C)c(O)c(C)c(O)c1C(=O)/C=C/c1ccc(F)c(F)c1 [Chemical Formula 6, 1-(2′,4′-dihydroxy-6′-methoxy-3′,5′-dimethylphenyl)-3-(3,4-difluorophenyl)-2-propen-1-one] | effectively reduced ROS | similarly or more effectively suppressed the binding of immune cells than Rosi |  | increased the activity of AMPK similarly to or more effectively than the positive controls
COCOc1c(C)c(O)c(C(=O)/C=C/c2ccc(F)c(F)c2)c(OC)c1C [Chemical Formula 11, 1-(2′-hydroxy-4′-(methoxymethoxy)-6′-methoxy-3′,5′-dimethylphenyl)-3-(3,4-difluorophenyl)-2-propen-1-one] | effectively reduced ROS | similarly or more effectively suppressed the binding of immune cells than Rosi |  | increased the activity of AMPK similarly to or more effectively than the positive controls
COCOc1c(C)c(O)c(C(=O)/C=C/c2ccc(SC)cc2)c(OC)c1C [Chemical Formula 13, 1-(2′-hydroxy-4′-(methoxymethoxy)-6′-methoxy-3′,5′-dimethyphenyl)-3-(4-methylthiophenyl)-2-propen-1-one] | effectively reduced ROS | similarly or more effectively suppressed the binding of immune cells than Rosi | similarly or more effectively suppressed cell migration by PDGF than AICAR and Rosi, which were used as positive controls, and DMC | 
COc1c(C)c(O)c(C)c(O)c1C(=O)/C=C/c1ccc(C)cc1C [Chemical Formula 39, 1-(2′,4′-dihydroxy-6′-methoxy-3′,5′-dimethylphenyl)-3-(2,4-dimethylphenyl)-2-propen-1-one] |  | similarly or more effectively suppressed the binding of immune cells than Rosi | similarly or more effectively suppressed cell migration by PDGF than AICAR and Rosi, which were used as positive controls, and DMC | increased the activity of AMPK similarly to or more effectively than the positive controls
COc1c(C)c(O)c(C)c(O)c1C(=O)/C=C/c1ccc(N(C)C)cc1 [Chemical Formula 7, 1-(2,4′-dihydroxy-6′-methoxy-3′,5′-dimethylphenyl)-3-(4-(N,N-dimethylamino)phenyl)-2-propen-1-one] | effectively reduced ROS | similarly or more effectively suppressed the binding of immune cells than Rosi |  | 
COCOc1c(C)c(O)c(C(=O)/C=C/c2ccc(C(F)(F)F)cc2)c(OC)c1C [Chemical Formula 14, 1-(2′-hydroxy-4′-(methoxymethoxy)-6′-methoxy-3′,5′-dimethylphenyl)-3-(4-(trifluoromethyl)phenyl)-2-propen-1-one] | effectively reduced ROS | similarly or more effectively suppressed the binding of immune cells than Rosi |  | 
COCOc1c(C)c(O)c(C(=O)/C=C/c2ccccc2Cl)c(OC)c1C [Chemical Formula 38, 1-(2′-hydroxy-4′-(methoxymethoxy)-6′-methoxy-3′,5′-dimethylphenyl)-3-(2-chlorophenyl)-2-propen-1-one] |  | similarly or more effectively suppressed the binding of immune cells than Rosi | similarly or more effectively suppressed cell migration by PDGF than AICAR and Rosi, which were used as positive controls, and DMC | 
COCOc1c(C)c(O)c(C(=O)/C=C/c2ccc(Cl)cc2)c(OC)c1C [Chemical Formula 12, 1-(2′-hydroxy-4′-(methoxymethoxy)-6′-methoxy-3′,5′-dimethyphenyl)-3-(4-chlorophenyl)-2-propen-1-one] | effectively reduced ROS | similarly or more effectively suppressed the binding of immune cells than Rosi |  | increased the activity of AMPK similarly to or more effectively than the positive controls
COc1c(C)c(O)c(C)c(O)c1C(=O)/C=C/c1ccc(C(F)(F)F)cc1 [Chemical Formula 9, 1-(2′,4′-dihydroxy-6′-methoxy-3′,5′-dimethylphenyl)-3-(4-(trifluoromethyl)phenyl)-2-propen-1-one] | effectively reduced ROS | similarly or more effectively suppressed the binding of immune cells than Rosi |  | increased the activity of AMPK similarly to or more effectively than the positive controls
COc1ccc(OC)c(/C=C/C(=O)c2c(O)c(C)c(O)c(C)c2OC)c1 [Chemical Formula 10, 1-(2′,4′-dihydroxy-6′-methoxy-3′,5′-dimethylphenyl)-3-(2,5-dimethoxyphenyl)-2-propen-1-one] | effectively reduced ROS | similarly or more effectively suppressed the binding of immune cells than Rosi |  | 

— US20230248665A1, “COMPOSITION COMPRISING DIMETHYLCHALCONE DERIVATIVE FOR PREVENTION OR TREATMENT OF METABOLIC DISEASE” (SEOUL NATIONAL UNIVERSITY R & DB FOUNDATION, priority 2020, published 2023)
